Assay: Log of liquid dish neat product liquid-air partition coefficient
Type: physicochemical
Details: not given

SMILES	Comment Code: Log of liquid dish neat product liquid-air partition coefficient
CC(C)C(=O)OC1CC2CCC1(C)C2(C)C (stereo not shown) [Material 229]	K (Log of liquid dish neat product liquid-air partition coefficient greater than or equal to 7)
CC12CCCC(C)(CC1)C2=NO [Material 921]	K (Log of liquid dish neat product liquid-air partition coefficient greater than or equal to 7)
CC(=O)OC(C)CC(C)(C)c1ccccc1 (stereo not shown) [Material 1134]	K (Log of liquid dish neat product liquid-air partition coefficient greater than or equal to 7)
CC/C(=C/CC1CC=C(C)C1(C)C)CO (stereo not shown) [Material 1024]	K (Log of liquid dish neat product liquid-air partition coefficient greater than or equal to 7)
C=CC(C)(CCC=C(C)C)OC=O (stereo not shown) [Material 150]	K (Log of liquid dish neat product liquid-air partition coefficient greater than or equal to 7)
CC(=O)c1cc2c(cc1C)C(C)(C)C(C)C2(C)C (stereo not shown) [Material 927]	K (Log of liquid dish neat product liquid-air partition coefficient greater than or equal to 7)
CC(O)CCC1CCCCC1 (stereo not shown) [Material 699]	K (Log of liquid dish neat product liquid-air partition coefficient greater than or equal to 7)
CC1C(C)(C)C2CCC3CC(C)(C)OC3C2C1(C)C (stereo not shown) [Material 679]	K (Log of liquid dish neat product liquid-air partition coefficient greater than or equal to 7)
O=Cc1ccc2c(c1)OCO2 [Material 287]	K (Log of liquid dish neat product liquid-air partition coefficient greater than or equal to 7)
N#CC=Cc1ccccc1 [Material 549]	K (Log of liquid dish neat product liquid-air partition coefficient greater than or equal to 7)
CC1=CCCC2(C)CCC(C(C)(C)O)CC12 (stereo not shown) [Material 775]	K (Log of liquid dish neat product liquid-air partition coefficient greater than or equal to 7)

Same assay, conditions: Comment Code letters K and/or L

SMILES	Log of liquid dish neat product liquid-air partition coefficient (Comment Code K/L)
CC1CC(C)(c2ccccc2)OC(C)O1 (stereo not shown) [Material 1126]	K (Log of liquid dish neat product liquid-air partition coefficient greater than or equal to 7)
COCc1ccc(O)c(OC)c1 [Material 1113]	K (Log of liquid dish neat product liquid-air partition coefficient greater than or equal to 7)

Same assay, conditions: code letter within the Comment Code cell

SMILES	Log of liquid dish neat product liquid-air partition coefficient (Comment Code K/L)
C=CCCC(=O)/C=C/C1C(C)=CCCC1(C)C (stereo not shown) [Material 559]	K (Log of liquid dish neat product liquid-air partition coefficient greater than or equal to 7)
CC(C)C(=O)OC1CC2CCC1(C)C2(C)C (stereo not shown) [Material 229]	K (Log of liquid dish neat product liquid-air partition coefficient greater than or equal to 7)
c1ccc(Cc2ccccc2)cc1 [Material 429]	K (Log of liquid dish neat product liquid-air partition coefficient greater than or equal to 7)
C=C1C=CC(C(C)C)CCC(C)=CCC1 (stereo not shown) [Material 296]	K (Log of liquid dish neat product liquid-air partition coefficient greater than or equal to 7)
O=C1CCC=CCCCCCCCCCC1 [Material 371]	K (Log of liquid dish neat product liquid-air partition coefficient greater than or equal to 7)
CCCCCCCCCCCC(=O)OCCC(C)C [Material 238]	K (Log of liquid dish neat product liquid-air partition coefficient greater than or equal to 7)
Cc1cccc(CC(C)(C)CO)c1 [Material 140]	K (Log of liquid dish neat product liquid-air partition coefficient greater than or equal to 7)
C=CC(C)(O)CCC=C(C)CCC=C(C)C (stereo not shown) [Material 63]	K (Log of liquid dish neat product liquid-air partition coefficient greater than or equal to 7)
CCCCCCCCCCCCCC(=O)OCC [Material 388]	K (Log of liquid dish neat product liquid-air partition coefficient greater than or equal to 7)
CC1CC=CCCCCCCCC(=O)OCC1 (stereo not shown) [Material 52]	K (Log of liquid dish neat product liquid-air partition coefficient greater than or equal to 7)
CC(=CC#N)CCc1ccccc1 [Material 505]	K (Log of liquid dish neat product liquid-air partition coefficient greater than or equal to 7)
CC(=O)OCC=Cc1ccccc1 [Material 553]	K (Log of liquid dish neat product liquid-air partition coefficient greater than or equal to 7)
CC(C)=CCC/C(C)=C\CO [Material 64]	K (Log of liquid dish neat product liquid-air partition coefficient greater than or equal to 7)
C=C(OCC)C1C(C)(C)CC(=O)CC1(C)C [Material 182]	K (Log of liquid dish neat product liquid-air partition coefficient greater than or equal to 7)
CC(C)=C1CCC(C)(O)CC1 (stereo not shown) [Material 318]	K (Log of liquid dish neat product liquid-air partition coefficient greater than or equal to 7)
COC(C=C(C)CCC=C(C)C)OC [Material 520]	K (Log of liquid dish neat product liquid-air partition coefficient greater than or equal to 7)
CC=C(C)C(=O)OCCC=CCC [Material 274]	K (Log of liquid dish neat product liquid-air partition coefficient greater than or equal to 7)

Same assay, conditions: code letters K/L of the Comment Code

SMILES	Log of liquid dish neat product liquid-air partition coefficient (Comment Code)
COc1ccc(CCC(C)=O)cc1 [Material 803]	K (Log of liquid dish neat product liquid-air partition coefficient greater than or equal to 7)
CCCCCCC/C=C\CCC=O [Material 1045]	K (Log of liquid dish neat product liquid-air partition coefficient greater than or equal to 7)
OCCc1ccccc1 [Material 955]	K (Log of liquid dish neat product liquid-air partition coefficient greater than or equal to 7)
CC/C=C\C/C=C/CCO [Material 1072]	K (Log of liquid dish neat product liquid-air partition coefficient greater than or equal to 7)
CC(C)c1cccc(C(C)CC=O)c1 (stereo not shown) [Material 914]	K (Log of liquid dish neat product liquid-air partition coefficient greater than or equal to 7)
C=C(C)C1CCC2(C)CCCC(=C)C2C1 (stereo not shown) [Material 615]	K (Log of liquid dish neat product liquid-air partition coefficient greater than or equal to 7)
CC1=CC2C(C(C)C)CCC(C)(O)C2CC1 (stereo not shown) [Material 1047]	K (Log of liquid dish neat product liquid-air partition coefficient greater than or equal to 7)
C=C1C=CC(C(C)CCC=C(C)C)CC1 (stereo not shown) [Material 614]	K (Log of liquid dish neat product liquid-air partition coefficient greater than or equal to 7)
CC/C(=C/CC1CC=C(C)C1(C)C)CO (stereo not shown) [Material 1024]	K (Log of liquid dish neat product liquid-air partition coefficient greater than or equal to 7)
CCCCOC(=O)C(C)OC(=O)CCC (stereo not shown) [Material 595]	K (Log of liquid dish neat product liquid-air partition coefficient greater than or equal to 7)
CC(C)=CCCC1=CCC(C#N)CC1 (stereo not shown) [Material 660]	K (Log of liquid dish neat product liquid-air partition coefficient greater than or equal to 7)
OCCOc1ccccc1 [Material 834]	K (Log of liquid dish neat product liquid-air partition coefficient greater than or equal to 7)
CC(=O)c1cc2c(cc1C)C(C)(C)C(C)C2(C)C (stereo not shown) [Material 927]	K (Log of liquid dish neat product liquid-air partition coefficient greater than or equal to 7)
CC(C)(C)c1ccc(CCC=O)cc1 [Material 601]	K (Log of liquid dish neat product liquid-air partition coefficient greater than or equal to 7)
C=C(C)C1CCC(C)(OC(C)=O)CC1 (stereo not shown) [Material 611]	K (Log of liquid dish neat product liquid-air partition coefficient greater than or equal to 7)
CC(CC=O)CCc1ccccc1 (stereo not shown) [Material 807]	K (Log of liquid dish neat product liquid-air partition coefficient greater than or equal to 7)
CCCCC/C=C/C=C\C(=O)OCC [Material 942]	K (Log of liquid dish neat product liquid-air partition coefficient greater than or equal to 7)
CC1C(C)(C)C2CCC3CC(C)(C)OC3C2C1(C)C (stereo not shown) [Material 679]	K (Log of liquid dish neat product liquid-air partition coefficient greater than or equal to 7)
CC(C)(O)Cc1ccccc1 [Material 649]	K (Log of liquid dish neat product liquid-air partition coefficient greater than or equal to 7)
CC1=C2CCC(C)C2CC(C(C)(C)O)CC1 (stereo not shown) [Material 920]	K (Log of liquid dish neat product liquid-air partition coefficient greater than or equal to 7)
CC1C(C)(C)C2=C(C(=O)CCC2)C1(C)C (stereo not shown) [Material 572]	K (Log of liquid dish neat product liquid-air partition coefficient greater than or equal to 7)
C/C=C/c1cc(OC)c(OC)cc1OC [Material 924]	K (Log of liquid dish neat product liquid-air partition coefficient greater than or equal to 7)
COc1ccc(CC(C)C=O)cc1 (stereo not shown) [Material 586]	K (Log of liquid dish neat product liquid-air partition coefficient greater than or equal to 7)
C=C(C)C1CCC2(C)CCC=C(C)C2C1 (stereo not shown) [Material 774]	K (Log of liquid dish neat product liquid-air partition coefficient greater than or equal to 7)
CC1=CCCC2(C)CCC(C(C)(C)O)CC12 (stereo not shown) [Material 775]	K (Log of liquid dish neat product liquid-air partition coefficient greater than or equal to 7)

— patent publication US20170333591A9, “ABSORBENT ARTICLE COMPRISING MALODOR REDUCTION COMPOSITIONS” (The Procter & Gamble Company, priority 2014, published 2017)
